Reference: patent publication US20120270848A1, “Novel Compositions and Therapeutic Methods Using Same” (Galleon Pharmaceuticals, Inc., priority 2010, published 2012)
In brackets after ≈: the same amount, converted by molar mass. Several values for one entry are separate records, joined by “and”; a condition that tells them apart may be missing. Equal entries are not always repeated. Entries after “also recorded” stand apart in the source; their conditions may differ.

Experiments:
[1] = test system: spontaneously breathing rats; assay: In vivo spirometry: cumulative dose-dependent ventilatory response (maximum peak minute ventilation); parameters: species or system rat
Protocol: (§1) All surgical procedures were performed under anesthesia induced by 2% isoflurane in compressed medical grade air. With rats in supine position, the right femoral vein was catheterized using polyethylene tubing (PE-50). This catheter was used for fluid and drug administration. Simultaneously, the right femoral artery was also catheterized for monitoring blood pressure. In order to measure the respiratory parameters in spontaneously breathing rats, trachea was intubated using 13 gauge tracheal tube (2.5 mm ID, Instech Solomon, Pa.).
After establishing a stable base-line at 1.5% isoflurane, cumulative dose-dependent (1, 3, 10 and 30 mg/kg) ventilatory responses to (−)-doxapram, (+)-doxapram, or racemic doxapram were generated from spontaneously breathing rats. Maximum peak minute ventilatory (MV) values at each dose from corresponding drug were calculated and used for generating ED50 values. Results are illustrated in Table 3 and FIG. 1. All the specific ventilatory stimulant activity of racemic doxapram was associated with the (+)-enantiomer.

[2] = test system: opioid-induced respiratory depression in the rat; assay: Opioid-induced respiratory depression, plethysmography (minute ventilation); type: in vivo; conditions: 1, 3 mg/kg/min IV infusion after 10 mg/kg IV morphine; compared to vehicle
Protocol: All animal experiments were carried out according to the US law on animals care and use approved by Galleon Pharmaceuticals Institutional Animal Care and Use Committee (IACUC). Rats with pre-cannulated jugular vein (for administrating drugs) were acclimated to plethysmography chambers for a minimum of 60 minutes, or until animals were no longer restless. Each animal was dosed with morphine sulfate (10 mg/kg), dissolved in sterile water at a concentration of 10 mg/mL (supplied by Baxter Healthcare Corporation), via injection into the jugular vein catheter over a period of 5-10 seconds. After a period of 5 min, (−)-doxapram, (+)-doxapram, or racemic doxapram ([…]) was administered via infusion into the jugular vein at a rate of 0.020 mL/min for a 300 gram rat. Behavioral observations were made though the course of the experiment. After 20 min of infusion at 1 mg/kg/min, the infusion rates were tripled from 0.020 mL/min to 0.060 mL/min for all rats, based on body weight. After 20 minutes of infusion at this dose, the infusion pumps were turned off, and all animals were given a 20 minute recovery period, followed by a post-study analysis of rat health and behavior. […] The small increase in minute ventilation seen towards the end of the experiment in the (−)-doxapram group was associated with behavioral toxicities and therefore cannot be distinguished from non-specific side effects. […]

[3] = test system: opioid-induced respiratory depression in the rat; assay: Opioid-induced changes in arterial blood gas parameters, arterial blood gas analysis; type: in vivo; conditions: for Arterial Blood Gases - OIRD, pCO2 (mmHg) and saO2 (%): reversal of opioid-induced respiratory depression: 3 mg/kg/min IV infusion after 10 mg/kg IV morphine, compared to vehicle; for PaCO2: % reversal / PaO2: % reversal / pH % reversal / saO2: % reversal: 3.0 mpk/min IV infusion after morphine 10 mg/kg, vs composite vehicle group, 15 min into 20 min infusion
Protocol: Rats with pre-cannulated jugular vein and femoral arterial catheters (for administrating drugs and obtaining blood samples respectively) were obtained from Harlan laboratories and kept at the animal facility at Galleon Pharmaceuticals until the experimental procedures. All animals experiments were carried out according to the US law on animals care and use approved by Galleon Pharmaceuticals IACUC. Each animal was dosed with morphine sulfate (10 mg/kg), dissolved in saline at a concentration of 10 mg/ml, via injection into the jugular vein over a period of 20 seconds with a 20 second flush of 0.9% NaCl saline. Prior to morphine administration, two 250 μL samples of arterial blood were aspirated from the femoral artery into a pre-heparinized syringe. The samples were analyzed on Radiometer's ABL Flex 800, where pO2, pCO2, pH, saO2 and other parameters were recorded. Aspirated volumes of arterial blood were replaced by room temperature sterile saline (˜300 μL) slowly flushed back into the femoral arterial catheter of the rodent to prevent anemia and/or dehydration. Morphine was then administered and 2 minutes later another blood sample was taken. After a period of 5 min from the administration of morphine, (−)-doxapram, (+)-doxapram or racemic doxapram (15 mg/mL) was administered via infusion into the jugular vein at a rate of 60 μL/min/300 gram rat. The infusion started at t=15 minutes and ended at t=35 minutes. Arterial blood gas analysis occurred at time points t=17, 25, 30, 37, 45, and 50 minutes. […] The small improvements in blood gas parameters seen towards the end of the experiment in the (−)-doxapram group were associated with behavioral toxicities and therefore cannot be distinguished from non-specific side effects. Results are illustrated in Table 4 and FIGS. 3-4.

[4] = test system: hypoxic ventilatory response in the rat; assay: Hypoxic ventilatory response to 12% O2, plethysmography; type: in vivo; conditions: IV infusion (Table 5: 1, 3 mg/kg/min; text: 3 mg/kg/min), compared to vehicle
Protocol: Rats with a pre-cannulated jugular vein (for administrating drugs) were acclimated to plethysmography chambers for a minimum of 60 minutes, or until animals were no longer restless. Each animal was dosed with (−)-doxapram, (+)-doxapram, or racemic doxapram via infusion into the jugular vein catheter over a period of 15 minutes, at 3 mg/kg/min at 0.020 ml/min based on a 300 gram rat. After a period of 15 minutes, an isocapnic, hypoxic mixture (12% O2 balanced N2) was administered into all chambers using a gas mixer (CWE inc. GSM-3 gas mixer) for 15 minutes. After 15 minutes, the gas mixer was turned off, resulting in normal room air pumped into the chambers. Ten minutes later, the infusion pumps were turned off, and all animals were given a 15 minute recovery period, followed by a post-study analysis of rat health and behavior. […] The small increases in minute ventilation seen towards the end of the experiment in the (−)-doxapram group (i.e. T20-T55) were associated with behavioral toxicities and therefore cannot be distinguished from non-specific side effects. Results are illustrated in FIG. 5 and Table 5.

rat = assay: Cardio-respiratory traces after IV bolus (respiratory flow, volumes, minute ventilation, blood pressure); type: in vivo; conditions: for effect on arterial blood pressure and arrhythmias / effect on respiratory flow, inspiratory and expiratory volume, minute ventilation: 30 mg/kg IV bolus
Protocol: as §1
The procedure outlined in Example 1 was used herein. […] Results are illustrated in FIG. 6.
The procedure described in Example 1 was used herein to evaluate the effect of (−)-doxapram on mean arterial blood pressure (MAP) in the rat. […] Results are illustrated in FIG. 8.

rats = assay: Observations of animal behavior and adverse effects; type: in vivo, rat; conditions: for Death (animals out of group of 6): 30 mg/kg IV bolus, 30 mg/kg; for Clonic movements (animals out of group of 6) / Hunching, static, increased urination & defecation (animals out of group of 6): 3 mg/kg
Excerpt: In Examples 1-7 described above, all rats are observed for behavioral changes and adverse effects, as recognized by those skilled in the art. Such effects include central nervous system and motor effects such as impairment, sedation, and convulsive potential, and mortality. Other effects related to bodily functions are also observable and may include changes in breathing, urination, defecation, posture, and normal cage activities (i.e., grooming, exploring, eating, etc.). […]

[5] = Comparative IV pharmacokinetics of a 20 min infusion; type: in vivo; conditions: 20 min infusion of 3 mg/kg/min IV
Protocol: FIG. 9 is a set of graphs illustrating the IV pharmacokinetics of a 20-minute infusion (from 15 minutes to 35 minutes) of 3 mg/kg/min IV (+)-doxapram and (−)-doxapram. The upper panel pharmacokinetic data was plotted on a linear y-axis, the lower panel represents the same data plotted on a log y-axis.
The difference in efficacy and adverse events seen between the enantiomers is therefore due to genuine differences in the intrinsic pharmacodynamics (i.e. pharmacology and side effects profiles) of the enantiomers, as opposed to differential exposures/pharmacokinetics. Results are illustrated in FIG. 9.

[6] = Solubility in EtOH/MeOH for the chromatographic separation; type: physicochemical; conditions: organic solvent or mixture
Protocol: With stirring and sonication, 2.51 g of racemic doxapram were dissolved in approximately 200 mL EtOH/MeOH (50/50 v/v). The solution was injected onto the chromatographic column using the conditions illustrated above. The injection volume was 4 mL, performed every 7 minutes. The appropriate fractions collected from the chromatographic process were concentrated using rotary evaporators at 40° C. and 50 mbar. After solvent removal, the products were dried in a vacuum oven at 40° C. to obtain (−)-doxapram (1.19 g, 95% yield, ?99% e.e.) and (+)-doxapram (1.34 g, 107% yield, ≧99% e.e.). The experimental recovery of (+)-doxapram may have been high due to residual DMEA in the system.
A sample of 19.94 g of racemic doxapram was dissolved in approximately 1.0 L of EtOH/MeOH 80/20 (v/v) with stirring and sonication. The injection volume was 4 mL, and injection was performed every 5.83 min. The appropriate fractions collected from the chromatographic process were concentrated using rotary evaporators at 40° C. and 50 mbar. After solvent removal, the products were dried in a vacuum oven at 40° C. to obtain (−)-doxapram (8.47 g, 85% yield, ≧99% e.e.) and (+)-doxapram (12.50 g, 125% yield, ≧99% e.e.). The experimental recovery of (+)-doxapram may have been high due to residual DMEA in the system.

[7] = IV bolus, cumulative doses 1, 3, 10 and 30 mg/kg, 1.5% isoflurane, maximum peak MV values
[8] = ventilatory stimulant activity, rat IV

CCN1CC(CCN2CCOCC2)C(c2ccccc2)(c2ccccc2)C1=O (single isomer, unassigned; (+)) [(+)-doxapram, (+)-enantiomer of 1-ethyl-4-(2-morphilinoethyl)-3,3-diphenyl-2-pyrrolidinone]
ED50 (mg/kg IV), increase in minute ventilation (MV) [1, 7]: 2.2 mg/kg and 2.1 mg/kg
Plethysmography - OIRD (MV): reversal of opioid-induced respiratory depression [2]: significantly reverses opioid-induced respiratory depression; also recorded: Active
Arterial Blood Gases - OIRD, pCO2 (mmHg) and saO2 (%): reversal of opioid-induced respiratory depression [3]: significantly reverse opioid-induced respiratory depression; also recorded: Active
PaCO2: % reversal [3]: 79%
PaO2: % reversal [3]: 41%
pH % reversal [3]: 49%
saO2: % reversal [3]: 41%
Plethysmography (MV), Naïve and HVR: potentiation of hypoxic ventilatory response [4]: significantly potentiated the hypoxic ventilatory response; also recorded: Active
effect on arterial blood pressure and arrhythmias (rat): only a minimal reduction in blood pressure without associated arrhythmias
effect on respiratory flow, inspiratory and expiratory volume, minute ventilation (rat): increased respiratory flow, inspiratory and expiratory volume, as well as enhanced minute ventilation
Cardiopulmonary response: mean arterial pressure (MAP) (rat; E-Phys, ≧10 mg/kg IV bolus): MAP ↓
Death (animals out of group of 6) (rats; Pleth.): 0/6
adverse effects across the studies (rats; rat, in vivo, iv): did not
Clonic movements (animals out of group of 6) (rats; rat, in vivo, iv): 0/6
Hunching, static, increased urination & defecation (animals out of group of 6) (rats; rat, in vivo, iv): 0/6
plasma exposure (time course, maximum concentration, AUC, washout), enantiomer vs enantiomer [5]: directly comparable time course, maximum concentration and exposure (AUC)

CCN1CC(CCN2CCOCC2)C(c2ccccc2)(c2ccccc2)C1=O (single isomer, unassigned; (-)) [(−)-doxapram]
ED50 (mg/kg IV), increase in minute ventilation (MV) [1, 7]: >200 mg/kg
potency vs (+)-enantiomer (times less potent) [1, 8]: at least 100 times
Plethysmography - OIRD (MV): reversal of opioid-induced respiratory depression [2]: does not; also recorded: Not active
Arterial Blood Gases - OIRD, pCO2 (mmHg) and saO2 (%): reversal of opioid-induced respiratory depression [3]: does not; also recorded: Not active
PaCO2: % reversal [3]: 24%
PaO2: % reversal [3]: −2%
pH % reversal [3]: −8%
saO2: % reversal [3]: −6%
Plethysmography (MV), Naïve and HVR: potentiation of hypoxic ventilatory response [4]: did not; also recorded: Not active
effect on arterial blood pressure and arrhythmias (rat): pronounced reduction in arterial blood pressure together with a period of associated arrhythmias; also recorded: pronounced drop in blood pressure in rat, including a period of heart arrhythmias
effect on respiratory flow, inspiratory and expiratory volume, minute ventilation (rat): only a minimal effect on respiratory flow, inspiratory and expiratory volume, and minute ventilation; also recorded: minimal ventilatory response
Cardiopulmonary response: arrhythmias (rat; E-Phys, ≧10 mg/kg IV bolus): Arrhythmias
Cardiopulmonary response: mean arterial pressure (MAP) (rat; E-Phys, ≧10 mg/kg IV bolus, 10 mg/kg): MAP ↓↓
Clonic movements (animals out of group of 6) (rats; ABG post morphine, 3 mg/kg/min IV): 5/6
Hunching, static, increased urination & defecation (animals out of group of 6) (rats; Pleth., 3 mg/kg/min IV): 6/6
Death (animals out of group of 6) (rats; Pleth.): 5/6
adverse effects across the studies (rats; at the doses tested, IV): consistently produced a variety of adverse effects
plasma exposure (time course, maximum concentration, AUC, washout), enantiomer vs enantiomer [5]: directly comparable time course, maximum concentration and exposure (AUC)

CCN1CC(CCN2CCOCC2)C(c2ccccc2)(c2ccccc2)C1=O (racemic) [doxapram, 1-ethyl-4-(2-morphilinoethyl)-3,3-diphenyl-2-pyrrolidinone, reference compound]
ED50 ([1]; Rattus norvegicus, IV bolus, cumulative doses 1, 3, 10 and 30 mg/kg, 1.5% isoflurane, maximum peak MV values, read-out: ED50 (mg/kg IV), increase in minute ventilation (MV)): 4.8 mg/kg
potency relative to (+)-enantiomer [1, 8]: approximately 50%
Arterial Blood Gases - OIRD, pCO2 (mmHg) and saO2 (%): reversal of opioid-induced respiratory depression [3]: significantly reverse opioid-induced respiratory depression
PaCO2: % reversal [3]: 90%
PaO2: % reversal [3]: 22%
pH % reversal [3]: 58%
saO2: % reversal [3]: 33%
Plethysmography (MV), Naïve and HVR: potentiation of hypoxic ventilatory response [4]: significantly potentiated the hypoxic ventilatory response
solubility ([6]; in EtOH/MeOH 80/20 (v/v)): 19.9 mg/mL (≈ 52.6 mM)
solubility ([6]; in EtOH/MeOH (50/50 v/v)): 12.6 mg/mL (≈ 33.3 mM)
